Laboratory results as given in US20090221622A1, “TOPOTECAN READY TO USE SOLUTIONS” (EAGLE PHARMACEUTICALS, INC., priority 2008, published 2009).
Read-outs that look alike come from different tables or passages of the source.

Key:
[1] = aqueous media; cited from earlier work
[2] = Solubility of 10-HCPT in aqueous and acid media
[3] = Experimental: […] […] Quantitatively, 0.01 area % is equivalent to 0.1 μg/mL of 10-HPCT.
The solution was filled into either flint glass vials or polyethylene vials. One portion of the solution was transferred into 5 ml glass vials and another portion was placed into 5 ml PE vials.

[4] = in vivo; cited from earlier work

10-HCPT formed by degradation ([3]; 5 weeks, 1 mg/ml, pH 3.2) [%]	10-HCPT formed by degradation ([3]; 12 weeks, 1 mg/mL, pH 1) [%]	10-HCPT formed by degradation ([3]; 12 weeks, 1 mg/ml, pH 2) [%]	Compound	Solubility of 10-HCPT [1]	Solubility of 10-HCPT ([2]; 0.01N HCl containing 3% benzyl alcohol)	Increase of solubility of 10-HCPT ([2]; 0.01N HCl containing 3% benzyl alcohol versus about 2 ng/mL) [fold]	Solubility of 10-HCPT ([2]; 0.1 N HCl) [μg/mL]	Solubility of 10-HCPT ([2]; 0.1 N MSA)	Saturation solubility of 10 HCPT ([2]; 10% lactic acid) [µg/mL]	Solubility of 10 HCPT ([2]; 20% lactic acid solution) [µg/mL]	Concentration of 10-HCPT reached before it precipitates ([2]; formulations prepared in hydrochloric acid, pH 1.5 or less)	Solubility of 10-HCPT ([2]; starting value, without benzyl alcohol)	Dose limiting toxicity [4]
			CC[C@@]1(O)C(=O)OCc2c1cc1n(c2=O)Cc2cc3cc(O)ccc3nc2-1 [Example 10-HCPT, 10-hydroxycamptothecin]	about 2 ng/ml	about 10 μg/mL	~5000	6	about 6 μg/mL	6.4	15	about 4 μg/mL	about 2 ng/mL	
5.64	0.07	0.6	CC[C@@]1(O)C(=O)OCc2c1cc1n(c2=O)Cc2cc3c(CN(C)C)c(O)ccc3nc2-1 [Topotecan]										neutropenia (bone marrow suppression) and thrombocytopenia
